What was measured:
HepG2 cells = assay: RT-qPCR after GH / GHR-antagonist treatment; type: cell-based, human; conditions: 3 days
Method: (§1) Following treatments, cells were lysed, and RNA extraction was performed using IBI Tri-isolate kit (IBI), following manufacturer's protocol. RT-qPCR was performed as described previously.
And so, the inventors performed a similar experiment with HepG2 and SK-HEP-1 human liver cancer cells, which have been extensively studied and known to express GHR, to verify this observation in human melanoma cells. In vitro, HepG2 cells were treated for 3 days with either 50 ng/mL GH (2.5 nM), or 50 nM […], or both GH and GHR-antagonist, and their RNA expressions were compared against untreated controls at basal condition (i.e. no drug treatment).
(§2) The inventors had previously shown that knock-down of GHR in turn strongly attenuates MET as well as HGF transcript levels in human melanoma. To verify this observation in another GHR expressing human cancer like HCC, the inventors analyzed the effects of GH and GHR-antagonist treatment on the expression of the oncogenic HGF-MET loop in human liver cancer cells. HepG2 and SK-HEP-1 cells were treated for 3 days with either 50 ng/mL GH (2.5 nM), or 50 nM GHR-antagonist, or both, and their RNA expressions were compared against untreated controls at basal levels (i.e. no drug treatment). No additional effect of added GH on the expression levels of HGF or MET in the liver cancer cell lines was observed, except a 2-fold increase in MET levels in SK-HEP-1 cells (FIG. 39). […] Irrespective of presence of added GH, the antagonist lowered HGF levels by >4-fold in Hep-G2 cells and up to 2-fold in SK-HEP-1 cells; while the MET levels were decreased by >2-fold in both Hep-G2 and SK-HEP-1 cells compared to the GH treated samples (FIG. 39). This observed nature of the suppressive effect of GHR-antagonist strongly indicates the existence of a autocrine/paracrine GH action in HCC, as the inventors had found stable GH expression in both Hep-G2 and SK-HEP-1 cells.

four melanoma cell lines = assay: Cell proliferation / EC50 determination; conditions: serum concentration in media 1%
Method: A 1% (w/v) resazurin (Sigma-Aldrich #R7017) solution in 1× PBS was made and filter-sterilized. The final concentration of resazurin in the assay was 0.004%. Inside the proliferating cells, mildly fluorescent blue resazurin is reduced to a bright pink fluorescent product called resorufin (stable for 4 hours), which allows for a quantitative measure of the percentage of proliferating cells. In all cases, cells were incubated at 37° C. in 5% CO2 for 45-60 min. for adequate sensitivity of detection. Briefly, cells were seeded at 10,000 cells/cm^2 into 96-well plates and transfected as described above. The resazurin assay was performed 60 hours after transfection (unless specified otherwise) and resorufin absorbance was measured at 570 nm (reference wavelength=600 nm) using Spectramax250 (Molecular Devices, Sunnyvale, Calif.) and SoftmaxPro software.
More specifically, SK-MEL-28 cells (FIG. 8A, panel 1), MALME-3M cells (FIG. 8A, panel 2), MDA-MB-435 cells (FIG. 8A, panel 3), and SK-MEL-5 cells (FIG. 8A, panel 4) were treated with increasing doses of hGH for 48 hr. and cell proliferation was estimated using a resazurin-based metabolic assay.
For treatment of melanoma cells, the following five anti-tumor compounds were obtained from the sources mentioned: cisplatin (Calbiochem #232120, Darmstadt, Germany), doxorubicin (Sigma Aldrich #D-1515, St. Louis, Mo.), oridonin (Sigma-Aldrich #O-9639, St. Louis, Mo.), Paclitaxel (Sigma-Aldrich #C-7191), and vemurafenib/PLX4032 (ApexBio #A-3004, Houston, Tex.). […] In the subsequent experiments, the following drug concentrations were used unless specified otherwise: cisplatin (0.5 μM), doxorubicin (10 nM), oridonin (0.5 μM), paclitaxel (1 nM), vemurafenib (2 nM). Treatments were performed for 24 hours starting 48 hours post-transfection with siRNA.

[1] = tested on: Hep-G2 and SK-HEP-1 cells; assay: Time-lapse WB of GH-regulated signaling pathways; type: cell-based, human; conditions: 50 ng/mL GH; within 20 minutes
Method: Following treatments, cells were lysed by mild sonication in Ripa lysis buffer as described previously. SDS-PAGE and western-blot was performed using general lab-techniques as described previously.

SK-MEL-5 cells [2] = assay: Cell proliferation (resazurin) assay; type: cell-based, human; conditions: 48 hr
SK-HEP-1 cells = assay: RT-qPCR after GH / GHR-antagonist treatment; type: cell-based, human; conditions: 50 ng/mL GH, 3 days
Method: as §1
as §2, with “This observed nature of the suppressive effect of GHR-antagonist strongly indicates the existence of a autocrine/paracrine GH action in HCC, as the inventors had found stable GH expression in both Hep-G2 and SK-HEP-1 cells.” left out

SK-MEL-5 cells [3] = assay: Phosphorylation of intracellular signaling intermediates by WB; type: cell-based, human
Method: (§3) Briefly, cell lysates were separated by SDS-PAGE and transferred to nitrocellulose membrane by a wet-transfer method at 70 mA over 14 hours at 4° C. and blocked with 5% non-fat dry milk (NFDM) or 5% bovine serum albumin (BSA) in 1× TBS-T (Tris buffered saline, […] with 0.1% Triton-X100) for 12-16 hours at 4° C. with gentle rocking. Membranes were then incubated with primary antibody (at the specific dilutions cited below) for 12-16 hours at 4° C. with gentle rocking. Membranes were then washed for 5 min. 3 times with 1× TBS-T and incubated with corresponding secondary antibodies (at the specific dilutions cited below) for 2 hours at 25° C. Membranes were then washed for 5 min. 4 times with 1× TBS-T, treated with West Femto Chemiluminiscence detection reagents (Thermo Fisher Scientific), and the chemiluminiscence signal was captured using a GelDoc (Biorad) fluorescence reader. Densitometric analysis of the blots was performed by measured band-intensity from the area-under-curve using ImageJ software.
(§4) GH-GHR action regulates phosphorylation states of intracellular signaling intermediates in human melanoma cells: In order to assess the effects of GHR-KD on the activation states of GH regulated shared oncogenic signaling pathways, scr-siRNA or GHR-siRNA transfected human melanoma cells, at 60 hours post-transfection, were treated with 50 ng/ml hGH for 20 minutes, and phosphorylation levels of intracellular signaling intermediates were analyzed by WB. Results are described below, and shown in FIGS. 9A-9I, 10A-10L, and 11A-11I. For the results described and shown in FIGS. 9A-I, SK-MEL-28 cells, 24 hr post-transfection with either scramble (scr)-siRNA or GHR-siRNA were treated for ten mins with GH and lysed as described. WB was performed using appropriate antibodies. Densitometry analyses of individual blots was performed using Image) software and the ratio of phosphorylated vs. total protein levels against untreated scr-siRNA transfected controls. Overall, excess GH increased while GHR-KD decreased phosphorylation states. […] In all cases, […]] Blots from individual experiments were quantified and the mean of three blots per antibody was taken. Protein levels were normalized against expression of β-actin. [*, p<0.05, Students t test, n=3]. And, for the results described and shown in FIGS. 11A-11I, WB was performed using appropriate antibodies. Densitometry analyses of individual blots was performed using ImageJ software and the ratio of phosphorylated vs. total protein levels against untreated scr-siRNA transfected controls. Overall, excess GH increased while GHR-KD decreased phosphorylation states. Blots from individual experiments were quantified and the mean of three blots per antibody was taken. Protein levels were normalized against expression of β-actin. [*, p<0.05, Students t test, n=3]

SK-MEL-28 cells = assay: as above; type: cell-based, human
Method: as §3, §4

MALME-3M cells = assay: as above; type: cell-based, human
Method: as §3, §4

Substance: hGH: Recombinant human growth hormone, Antibodies Online #ABIN2017921
- RNA level of CDH1, the epithelial marker (HepG2 cells; 50 ng/mL GH): downregulating
- RNA levels of mesenchymal marker vimentin (HepG2 cells; 50 ng/mL GH): significantly upregulate
- levels of ABCC4 and of the transcription factor SPI-B (HepG2 cells; exogenous GH 50 ng/mL): markedly upregulated
- minimum hGH concentration for a significant difference in cell proliferation (four melanoma cell lines): 50 ng/mL
- phosphorylation states of STAT3, STAT5, SRC, and ERK1/2 (p44/42 MAPK) [1]: increased significantly
- Cell proliferation induced by hGH-excess (increase) (SK-MEL-5 cells [2]; 50 ng/ml hGH): 10%
- increase in proliferation (SK-MEL-5 cells [2]; 150 ng/mL hGH): 22%
- increase in MET levels (SK-HEP-1 cells): 2 fold
- ERK1/2 levels upregulated by GH (increase) (SK-MEL-5 cells [3]): 5 fold
- increase in GH-induced phosphorylation of JAK2 (SK-MEL-5 cells [3]): 1.7 fold
- increase of AKT phosphorylation level (SK-MEL-5 cells [3]; 50 ng/ml hGH): up to 4 fold
- increase of mTOR phosphorylation level (SK-MEL-5 cells [3]; 50 ng/ml hGH): ≤ 15 fold
- increase in GH-induced phosphorylation of JAK2 (SK-MEL-28 cells): 6.1 fold
- increase in GH-induced phosphorylation of SRC (SK-MEL-28 cells): 3.5 fold
- STAT5 phosphorylation increased (SK-MEL-28 cells; 50 ng/ml hGH): 4.1 fold
- increase in STAT1 phosphorylation level (SK-MEL-28 cells; 50 ng/ml hGH): 2.4 fold
- increase in STAT3 phosphorylation level (SK-MEL-28 cells; 50 ng/ml hGH): 1.9 fold
- increase in GH-induced phosphorylation of SRC (MALME-3M cells): 1.7 fold
- STAT5 phosphorylation increased (MALME-3M cells; 50 ng/ml hGH): 5.8 fold
- increase in STAT1 phosphorylation level (MALME-3M cells; 50 ng/ml hGH): 2.2 fold
- increase in STAT3 phosphorylation level (MALME-3M cells; 50 ng/ml hGH): 11.9 fold
